# Test results as given in ChEMBL document CHEMBL5113512, “β-Nitrostyrene derivatives as broad range potential antifungal agents targeting fungal cell wall” (2022).
# Calls of active or inactive are those of the source. The rule behind the calls is not given here.
# Columns and labels:
# [1] = tested on: Candida; test: Downregulation of VPS34 gene expression in Candida cells; type: functional, cell-based
# [2] = tested on: Candida; test: Downregulation of RIO2 gene expression in Candida cells; type: functional, cell-based
# [3] = tested on: Candida; test: Downregulation of CDC15 gene expression in Candida cells; type: functional, cell-based
# [4] = tested on: Candida; test: Downregulation of RBT1 gene expression in Candida cells; type: functional, cell-based
# [5] = tested on: Candida; test: Downregulation of PRS5 gene expression in Candida cells; type: functional, cell-based
# [6] = tested on: Candida; test: Downregulation of CMP1 gene expression in Candida cells; type: functional, cell-based
# [7] = tested on: Candida; test: Downregulation of CPH1 gene expression in Candida cells; type: functional, cell-based
# [8] = tested on: Candida; test: Downregulation of PGA13 gene expression in Candida cells; type: functional, cell-based
# [9] = tested on: Candida; test: Downregulation of ACF2 gene expression in Candida cells; type: functional, cell-based
# [10] = tested on: Nakaseomyces glabratus; test: Antifungal activity against Candida glabrata ATCC 2001 assessed as inhibition of fungal growth by broth microdilution method; type: functional
# [11] = tested on: [Candida] auris; test: Antifungal activity against Candida auris 118 assessed as inhibition of fungal growth by broth microdilution method; type: functional; conditions: Candidozyma auris
# [12] = tested on: [Candida] auris; test: Antifungal activity against wild type Candida auris 102 assessed as inhibition of fungal growth by broth microdilution method; type: functional; conditions: Candidozyma auris
# [13] = tested on: Cell membrane; test: Disruption of membrane integrity in Candida albicans ATCC 24433 assessed as cell surface perturbations measured after 3 hrs by SEM analysis
# [14] = tested on: Cell membrane; test: Disruption of membrane integrity in Candida auris CBS10913 assessed as cell shrinkage and lysis by measuring leakage of intracellular material measured after 6 hrs by SEM analysis; conditions: Candidozyma auris
# [15] = tested on: Candidozyma auris; test: Upregulation of CaPHO15 gene expression in Candida auris CBS10913 assessed as increase in glycerol content at sub-inhibitory concentration incubated for 2 hrs; type: functional
# [16] = tested on: Candida albicans; test: Induction of ROS generation in Candida albicans ATCC 24433 assessed as increase in relative fluorescence unit at sub-inhibitory concentration incubated for 1 hr by DCFDA staining-based flow cytometric analysis; type: functional, organism-based
# [17] = tested on: Candida albicans; test: Synergistic antifungal activity against wild type Candida albicans SN152 assessed as inhibition of fungal growth incubated for 48 hrs in presence of fluconazole by checker board assay; type: functional
# [18] = tested on: Candida albicans; test: Synergistic antifungal activity against wild type Candida albicans SN152 assessed as Amphotericin B MIC incubated for 48 hrs by checker board assay; type: functional
# [19] = tested on: Candida albicans; test: Synergistic antifungal activity against Candida albicans SN152 harboring CAS5 mutant assessed as Caspofungin MIC incubated for 48 hrs by checker board assay; type: functional
# [20] = tested on: Candida albicans; test: Synergistic antifungal activity against Candida albicans ATCC 24433 assessed as fractional inhibitory concentration index incubated for 48 hrs in presence of Congo red by checker board assay; type: functional
# [21] = tested on: [Candida] auris; test: Synergistic antifungal activity against Candida auris CBS10913 assessed as inhibition of fungal growth incubated for 48 hrs in presence of Congo red by checker board assay; type: functional; conditions: Candidozyma auris
# [22] = tested on: Candida albicans; test: Synergistic antifungal activity against Candida albicans ATCC 24433 assessed as inhibition of fungal growth incubated for 48 hrs in presence of Calcoflour White by checker board assay; type: functional
# [23] = tested on: Candida albicans; test: Synergistic antifungal activity against Candida albicans ATCC 24433 assessed as Calcoflour White MIC incubated for 48 hrs by checker board assay; type: functional
# [24] = tested on: Candida parapsilosis; test: Synergistic antifungal activity against Candida parapsilosis ATCC 90018 assessed as fractional inhibitory concentration index incubated for 48 hrs in presence of Calcoflour White by checker board assay; type: functional
# [25] = tested on: [Candida] auris; test: Synergistic antifungal activity against Candida auris CBS10913 assessed as inhibition of fungal growth incubated for 48 hrs in presence of Calcoflour White by checker board assay; type: functional; conditions: Candidozyma auris
# [26] = tested on: Candida albicans; test: Antifungal activity against Candida albicans ATCC 24433 overexpressing AD(1-8)u-assessed as inhibition of fungal growth by broth microdilution method; type: functional
# [27] = tested on: Candida albicans; test: Synergistic antifungal activity against Candida albicans ATCC 24433 overexpressing ADCaMDR1-GFP assessed as fractional inhibitory concentration index incubated for 48 hrs in presence of caspofungin by checker board assay; type: functional
# [28] = tested on: Candida; test: Downregulation of SSZ1 gene expression in Candida cells; type: functional, cell-based
# [29] = tested on: Candida; test: Downregulation of CCW14 gene expression in Candida cells; type: functional, cell-based
# [30] = tested on: Candida; test: Downregulation of PGA10 gene expression in Candida cells; type: functional, cell-based
# [31] = tested on: Candida; test: Downregulation of GIT3 gene expression in Candida cells; type: functional, cell-based
# [32] = tested on: Candida; test: Upregulation of ARG1 gene expression in Candida cells; type: functional, cell-based
# [33] = tested on: Candida; test: Upregulation of ARG4 gene expression in Candida cells; type: functional, cell-based
# [34] = tested on: Candida; test: Upregulation of LSC2 gene expression in Candida cells; type: functional, cell-based
# [35] = tested on: Candida; test: Upregulation of GAL4 gene expression in Candida cells; type: functional, cell-based
structure (smiles),measurement,setting,value
O=[N+]([O-])/C=C/c1ccc(O)cc1,Activity,[1],Active
same,Activity,[2],Active
same,Activity,[3],Active
same,Activity,[4],Active
same,Activity,[5],Active
same,Activity,[6],Active
same,Activity,[7],Active
same,Activity,[8],Active
same,Activity,[9],Active
same,MIC80,[10],8 µg/mL
same,MIC80,[11],4 µg/mL
same,MIC80,[12],2 µg/mL
same,Activity,[13],Active
same,Activity,[14],Active
same,Activity,[15],Active
same,Activity,[16],Active
same,MIC,[17],0.0039 µg/mL
same,MIC,[18],0.25 µg/mL
same,MIC,[19],0.0078 µg/mL
same,fractional inhibitory concentration index (FICI),[20],0.375
same,MIC,[21],0.125 µg/mL
same,MIC,[22],0.0078 µg/mL
same,MIC,[23],12.5 µg/mL
same,fractional inhibitory concentration index (FICI),[24],0.5
same,MIC,[25],0.25 µg/mL
same,MIC80,[26],4 µg/mL
same,fractional inhibitory concentration index (FICI),[27],<0.5
same,Activity,[28],Active
same,Activity,[29],Active
same,Activity,[30],Active
same,Activity,[31],Active
same,Activity,[32],Active
same,Activity,[33],Active
same,Activity,[34],Active
same,Activity,[35],Active
